Assays:
[1] = system: COVID-19 infection; test: Phase IIa study: throat-family symptom score; format: in vivo
[2] = system: COVID-19 infection; test: Phase IIa study: eye-family symptom score; format: in vivo
[3] = system: SARS-CoV-2; conditions: 600 mg po four times daily for up to 14 days; cited from earlier work

In the case of `CN(C)C(=O)COC(=O)Cc1ccc(OC(=O)c2ccc(NC(=N)N)cc2)cc1` [camostat, 4-[[4-[(Aminoiminomethyl)amino]benzoyl]oxy]benzeneacetic acid 2-(dimethylamino)-2-oxoethyl ester], the “throat-family symptom score, Fitzmaurice model, Camostat” value ([1]; day 0) is reported as 2.3 (0.3), the “throat-family symptom score, Fitzmaurice model, Camostat” value ([1]; day 1) is reported as 2 (0.3) and the “throat-family symptom score, Fitzmaurice model, Effect (placebo vs camostat)” value ([1]; day 1) is reported as −0.7 (0.4). For the same molecule, the “throat-family symptom score, Fitzmaurice model, Camostat” value ([1]; day 2) was 1.7 (0.4), the “throat-family symptom score, Fitzmaurice model, Effect (placebo vs camostat)” value ([1]; day 2) was −0.8 (0.4) and the “throat-family symptom score, Fitzmaurice model, Camostat” value ([1]; day 3) was 1.6 (0.3). For the same molecule, the “throat-family symptom score, Fitzmaurice model, Effect (placebo vs camostat)” value ([1]; day 3) was −0.7 (0.4), the “throat-family symptom score, Fitzmaurice model, Camostat” value ([1]; day 4) was 1.7 (0.3) and the “throat-family symptom score, Fitzmaurice model, Effect (placebo vs camostat)” value ([1]; day 4) was −0.9 (0.4). The “throat-family symptom score, Fitzmaurice model, Camostat” value ([1]; day 5) was 1.1 (0.3), the “throat-family symptom score, Fitzmaurice model, Effect (placebo vs camostat)” value ([1]; day 5) was −0.2 (0.4) and the “throat-family symptom score, Fitzmaurice model, Camostat” value ([1]; day 6) was 0.9 (0.4). For the same molecule, the “throat-family symptom score, Fitzmaurice model, Effect (placebo vs camostat)” value ([1]; day 6) was −0.1 (0.4), the “throat-family symptom score, Fitzmaurice model, Camostat” value ([1]; day 7) was 0.7 (0.4) and the “throat-family symptom score, Fitzmaurice model, Effect (placebo vs camostat)” value ([1]; day 7) was −0.3 (0.4). For the same molecule, the “throat-family symptom score, Fitzmaurice model, Camostat” value ([1]; day 8) was 0.6 (0.4), the “throat-family symptom score, Fitzmaurice model, Effect (placebo vs camostat)” value ([1]; day 8) was −0.2 (0.4) and the “throat-family symptom score, Fitzmaurice model, Camostat” value ([1]; day 9) was 0.4 (0.4). The “throat-family symptom score, Fitzmaurice model, Effect (placebo vs camostat)” value ([1]; day 9) was −0.1 (0.4), the “throat-family symptom score, Fitzmaurice model, Camostat” value ([1]; day 10) was 0.5 (0.4) and the “throat-family symptom score, Fitzmaurice model, Effect (placebo vs camostat)” value ([1]; day 10) was −0.4 (0.4). For the same molecule, the “throat-family symptom score, Fitzmaurice model, Camostat” value ([1]; day 11) was 0.6 (0.4), the “throat-family symptom score, Fitzmaurice model, Effect (placebo vs camostat)” value ([1]; day 11) was −0.4 (0.4) and the “throat-family symptom score, Fitzmaurice model, Camostat” value ([1]; day 12) was 0.5 (0.4). The “throat-family symptom score, Fitzmaurice model, Effect (placebo vs camostat)” value ([1]; day 12) was −0.4 (0.4), the “throat-family symptom score, Fitzmaurice model, Camostat” value ([1]; day 13) was 0.5 (0.4) and the “throat-family symptom score, Fitzmaurice model, Effect (placebo vs camostat)” value ([1]; day 13) was −0.4 (0.5). The “throat-family symptom score, Fitzmaurice model, Camostat” value ([1]; day 14) was 0.5 (0.4), the “throat-family symptom score, Fitzmaurice model, Effect (placebo vs camostat)” value ([1]; day 14) was −0.5 (0.5) and the “eye-family symptom score, Fitzmaurice model, Camostat” value ([2]; day 0) was 1.4 (0.2). For the same molecule, the “eye-family symptom score, Fitzmaurice model, Camostat” value ([2]; day 1) was 1.4 (0.2), the “eye-family symptom score, Fitzmaurice model, Effect (placebo vs camostat)” value (shortened to “eye-family symptom score … (placebo vs camostat)”) ([2]; day 1) was −0.3 (0.3) and the “eye-family symptom score, Fitzmaurice model, Camostat” value ([2]; day 2) was 1.2 (0.2). The “eye-family symptom score … (placebo vs camostat)” value ([2]; day 2) was −0.2 (0.3), the “eye-family symptom score, Fitzmaurice model, Camostat” value ([2]; day 3) was 0.9 (0.2) and the “eye-family symptom score … (placebo vs camostat)” value ([2]; day 3) was −0.2 (0.3). The “eye-family symptom score, Fitzmaurice model, Camostat” value ([2]; day 4) was 0.5 (0.2), the “eye-family symptom score … (placebo vs camostat)” value ([2]; day 4) was 0.2 (0.3) and the “eye-family symptom score, Fitzmaurice model, Camostat” value ([2]; day 5) was 0.5 (0.2). The “eye-family symptom score … (placebo vs camostat)” value ([2]; day 5) was −0.2 (0.3), the “eye-family symptom score, Fitzmaurice model, Camostat” value ([2]; day 6) was 0.2 (0.2) and the “eye-family symptom score … (placebo vs camostat)” value ([2]; day 6) was 0.3 (0.3). For the same molecule, the “eye-family symptom score, Fitzmaurice model, Camostat” value ([2]; day 7) was 0.2 (0.2), the “eye-family symptom score … (placebo vs camostat)” value ([2]; day 7) was 0.3 (0.3) and the “eye-family symptom score, Fitzmaurice model, Camostat” value ([2]; day 8) was 0.1 (0.2). For the same molecule, the “eye-family symptom score … (placebo vs camostat)” value ([2]; day 8) was 0.5 (0.3), the “eye-family symptom score, Fitzmaurice model, Camostat” value ([2]; day 9) was 0.2 (0.2) and the “eye-family symptom score … (placebo vs camostat)” value ([2]; day 9) was 0.4 (0.3). The “eye-family symptom score, Fitzmaurice model, Camostat” value ([2]; day 10) was 0.2 (0.2), the “eye-family symptom score … (placebo vs camostat)” value ([2]; day 10) was 0.3 (0.3) and the “eye-family symptom score, Fitzmaurice model, Camostat” value ([2]; day 11) was 0 (0.2). The “eye-family symptom score … (placebo vs camostat)” value ([2]; day 11) was 0.4 (0.3), the “eye-family symptom score, Fitzmaurice model, Camostat” value ([2]; day 12) was 0 (0.2) and the “eye-family symptom score … (placebo vs camostat)” value ([2]; day 12) was 0.3 (0.3). The “eye-family symptom score, Fitzmaurice model, Camostat” value ([2]; day 13) was 0.1 (0.2), the “eye-family symptom score … (placebo vs camostat)” value ([2]; day 13) was 0.1 (0.3) and the “eye-family symptom score, Fitzmaurice model, Camostat” value ([2]; day 14) was 0.2 (0.2). The “eye-family symptom score … (placebo vs camostat)” value ([2]; day 14) was 0.1 (0.3) and the “time required for a negative SARS-CoV-2 test (primary endpoint)” value [3] was “did not show efficacy”.
